Test results: US20040186082A1, “Enhanced phototherapy for the treatment of cancer and autoimmune disease” (priority 2003, published 2004)

Tested on: psoriatic lesion on the leg
Experiment: Treatment of a psoriatic lesion with topical ointment and UVB irradiation (single patient)
Assay type: in vivo
Details: VES 20 mg/gram ointment applied 1 day after provitamin D + UVB (3 MED); within 12 hours
Protocol: Treatment of psoriasis with UVB irradiation. A patient with a ½ inch round psoriatic lesion on the leg was treated with provitamin D (35 mg/gram ointment) and irradiated with UVB (3 MED). […] The formally lesional tissue looked like normal healthy tissue.

## Cc1c(C)c2c(c(C)c1OC(=O)CCC(=O)O)CC[C@@](C)(CCC[C@H](C)CCC[C@H](C)CCCC(C)C)O2 [Vitamin E succinate]
  appearance of the treated tissue (induration, redness): the tissue was not indurated and the redness disappeared
